This note sets out measurements from patent publication US10875876B2, “Cyclized sulfamoylarylamide derivatives and the use thereof as medicaments for the treatment of hepatitis B” (priority 2015, dated 2020).

Series [1] is described as follows: Cytotoxicity in HepG2 cells, Resazurin assay. Particulars: human, HepG2 cells, TOX-HepG2-4 d CC50 (μM), HepG2 cells incubated for 4 days, viability by Resazurin assay. On the technique in general: Alamar Blue is a resazurin reagent that responds to reducing activity.
Series [2] deals with HBV. The series can be described thus: anti HBV activity, HepG2.117 cell line, intracellular HBV DNA by realtime PCR. Type of series: cell-based. Particulars: HepG2.117 cell line (Tet-off), 3 days of treatment, intracellular HBV DNA quantified by realtime PCR, read-out: HBV-AVE-HepG2.117 EC50. The method, then: The anti HBV activity was measured using the HepG2.117 cell line, a stable, inducibly HBV producing cell line, which replicates HBV in the absence of doxicycline (Tet-off system). For the antiviral assay, HBV replication was induced, followed by a treatment with serially diluted compound in 96-well plates in duplicate. After 3 days of treatment, the antiviral activity was determined by quantification of intracellular HBV DNA using realtime PCR and an HBV specific primer set and probe.

The mark [3] stands for this setting: Hepatitis B virus, HepG2.117, 72 h.

The term CC50 denotes the concentration giving 50% cytotoxicity. A lower CC50 goes with harm at low concentration. One may read the EC50 as the concentration needed to bring the measured effect to its halfway point.

Where two headings read alike, the source gives them in different places.

`C[C@H]1CCc2c(cn(C)c2C(=O)Nc2cc(F)c(F)c(F)c2)S(=O)(=O)N1` (single isomer, unassigned) [Compound 39, (3*S)-3,7-dimethyl-1,1-dioxo-N-(3,4,5-trifluorophenyl)-2,3,4,5-tetrahydropyrrolo[3,4-f]thiazepine-6-carboxamide] registered a CC50 at 4 days in series [1] of over 25 µM. For the same molecule, in series [2] (setting [3]), the EC50 was determined as 3 nM.

Consider `C[C@H]1CCc2c(cn(C)c2C(=O)Nc2ccc(F)c(C(F)(F)F)c2)S(=O)(=O)N1` (single isomer, unassigned) [Compound 40, (3*S)—N-[4-fluoro-3-(trifluoromethyl)phenyl]-3,7-dimethyl-1,1-dioxo-2,3,4,5-tetrahydropyrrolo[3,4-f]thiazepine-6-carboxamide], for which the CC50 at 4 days in series [1] was over 25 µM. For the same molecule, the EC50 in series [2] (setting [3]) is 22 nM.

Molecule `Cc1cc(NC(=O)c2c3c(cn2C)S(=O)(=O)N[C@@H](C)CC3)ccc1F` (single isomer, unassigned) [Compound 41, (3*S)—N-(4-fluoro-3-methyl-phenyl)-3,7-dimethyl-1,1-dioxo-2,3,4,5-tetrahydropyrrolo[3,4-f]thiazepine-6-carboxamide] gave a CC50 at 4 days in series [1] of over 25 µM. Besides, the EC50 in series [2] (setting [3]) is 8 nM.

In series [1], `C[C@H]1C=Cc2c(cn(C)c2C(=O)Nc2ccnc(C(F)(F)F)c2)S(=O)(=O)N1` (single isomer, unassigned) [Compound 42, (3*S)-3,7-dimethyl-1,1-dioxo-N-[2-(trifluoromethyl)-4-pyridyl]-2,3-dihydropyrrolo[3,4-f]thiazepine-6-carboxamide] gave a CC50 at 4 days of over 25 µM. For the same molecule, the EC50 in series [2] (setting [3]) stood at 81 nM.

As for `C[C@H]1C=Cc2c(cn(C)c2C(=O)Nc2ccnc(Br)c2)S(=O)(=O)N1` (single isomer, unassigned) [Compound 50, (3*S)—N-(2-bromo-4-pyridyl)-3,7-dimethyl-1,1-dioxo-2,3-dihydropyrrolo[3,4-f]thiazepine-6-carboxamide], the cytotoxic concentration (CC50) at 4 days in series [1] was over 25 µM. The EC50 in series [2] (setting [3]) stood at 2 nM.

In the case of `C[C@H]1C=Cc2c(cn(C)c2C(=O)Nc2ccc(F)c(C(F)F)c2)S(=O)(=O)N1` (single isomer, unassigned) [Compound 51, (3*S)—N-[3-(difluoromethyl)-4-fluoro-phenyl]-3,7-dimethyl-1,1-dioxo-2,3-dihydropyrrolo[3,4-f]thiazepine-6-carboxamide], the CC50 at 4 days in series [1] is over 25 µM. Further, the EC50 in series [2] (setting [3]) was under 2 nM.

Consider `C[C@H]1C=Cc2c(cn(C)c2C(=O)Nc2ccc(F)c(Cl)c2F)S(=O)(=O)N1` (single isomer, unassigned) [Compound 52, (3*S)—N-(3-chloro-2,4-difluoro-phenyl)-3,7-dimethyl-1,1-dioxo-2,3-dihydropyrrolo[3,4-f]thiazepine-6-carboxamide], for which, in series [1], the CC50 at 4 days is over 25 µM. In series [2] (setting [3]), the EC50 was determined as 56 nM.

`C[C@H]1CCc2c(cn(C)c2C(=O)Nc2ccnc(C(F)(F)F)c2)S(=O)(=O)N1` (single isomer, unassigned) [Compound 53, (3*S)-3,7-dimethyl-1,1-dioxo-N-[2-(trifluoromethyl)-4-pyridyl]-2,3,4,5-tetrahydropyrrolo[3,4-f]thiazepine-6-carboxamide] registered a CC50 at 4 days in series [1] of over 25 µM. For the same molecule, the EC50 in series [2] (setting [3]) amounted to 190 nM.

With `C[C@H]1CCc2c(cn(C)c2C(=O)Nc2ccc(F)c(Cl)c2F)S(=O)(=O)N1` (single isomer, unassigned) [Compound 54, (3*S)—N-(3-chloro-2,4-difluoro-phenyl)-3,7-dimethyl-1,1-dioxo-2,3,4,5-tetrahydropyrrolo[3,4-f]thiazepine-6-carboxamide], the CC50 at 4 days in series [1] is over 25 µM. In addition, the EC50 in series [2] (setting [3]) came out at 4 nM.

With `C[C@H]1CCc2c(cn(C)c2C(=O)Nc2ccc(F)c(C(F)F)c2)S(=O)(=O)N1` (single isomer, unassigned) [Compound 55, (3*S)—N-[3-(difluoromethyl)-4-fluoro-phenyl]-3,7-dimethyl-1,1-dioxo-2,3,4,5-tetrahydropyrrolo[3,4-f]thiazepine-6-carboxamide], the half-maximal cytotoxic concentration (CC50) at 4 days in series [1] is over 25 µM. The EC50 in series [2] (setting [3]) stood at 3 nM.

In the case of `C[C@H]1CCc2c(cn(C)c2C(=O)Nc2ccc(F)c(C#N)c2)S(=O)(=O)N1` (single isomer, unassigned) [Compound 56, (3*S)—N-(3-cyano-4-fluoro-phenyl)-3,7-dimethyl-1,1-dioxo-2,3,4,5-tetrahydropyrrolo[3,4-f]thiazepine-6-carboxamide], in series [1], the CC50 at 4 days is over 25 µM. In addition, the EC50 in series [2] (setting [3]) is 10 nM.

On to `C[C@H]1CCc2c(cn(C)c2C(=O)Nc2ccnc(Br)c2)S(=O)(=O)N1` (single isomer, unassigned) [Compound 57, (3*S)—N-(2-bromo-4-pyridyl)-3,7-dimethyl-1,1-dioxo-2,3,4,5-tetrahydropyrrolo[3,4-f]thiazepine-6-carboxamide], for which the CC50 at 4 days in series [1] was over 25 µM. In addition, the EC50 in series [2] (setting [3]) was determined as 13 nM.

In series [1], `Cn1cc2c(c1C(=O)Nc1ccnc(C(F)(F)F)c1)CCC(C(F)(F)F)NS2(=O)=O` (single isomer, unassigned) [Compound 59a, 7-methyl-1,1-dioxo-3-(trifluoromethyl)-N-[2-(trifluoromethyl)-4-pyridyl]-2,3,4,5-tetrahydropyrrolo[3,4-f]thiazepine-6-carboxamide] displayed a cytotoxic concentration (CC50) at 4 days of over 25 µM. Also, the EC50 in series [2] was over 500 nM.

In the case of `Cn1cc2c(c1C(=O)Nc1ccc(F)c(C#N)c1)CCC(C(F)(F)F)NS2(=O)=O` (single isomer, unassigned) [Compound 60a, N-(3-cyano-4-fluoro-phenyl)-7-methyl-1,1-dioxo-3-(trifluoromethyl)-2,3,4,5-tetrahydropyrrolo[3,4-f]thiazepine-6-carboxamide], the CC50 at 4 days in series [1] is over 25 µM. Further, the EC50 in series [2] is 55 nM.

With `CC(C)C1C=Cc2c(cn(C)c2C(=O)Nc2ccc(F)c(F)c2)S(=O)(=O)N1` (single isomer, unassigned) [Compound 79a, N-(3,4-difluorophenyl)-3-isopropyl-7-methyl-1,1-dioxo-2,3-dihydropyrrolo[3,4-f]thiazepine-6-carboxamide], in series [1], the CC50 at 4 days is over 25 µM. The EC50 in series [2] amounted to 43 nM.

For `Cn1cc2c(c1C(=O)Nc1ccc(F)c(F)c1)OCC(C1CCOCC1)NS2(=O)=O` (single isomer, unassigned) [Compound 89a, N-(3,4-difluorophenyl)-7-methyl-1,1-dioxo-3-tetrahydropyran-4-yl-3,4-dihydro-2H-pyrrolo[3,4-b][1,4,5]oxathiazepine-6-carboxamide], in series [1], the CC50 at 4 days is over 25 µM. In addition, in series [2], the EC50 worked out at 190 nM.

Regarding `Cn1cc2c(c1C(=O)Nc1ccc(F)c(F)c1)OC[C@@H](C(O)C1CC1)NS2(=O)=O` (single isomer, unassigned) [Compound 92a], the CC50 at 4 days in series [1] was over 24 µM. In addition, the EC50 in series [2] stood at 31 nM.

In series [1], `CC(C)C(O)C1COc2c(cn(C)c2C(=O)Nc2ccc(F)c(F)c2)S(=O)(=O)N1` (single isomer, unassigned) [Compound 114a, N-(3,4-difluorophenyl)-3-(1-hydroxy-2-methyl-propyl)-7-methyl-1,1-dioxo-3,4-dihydro-2H-pyrrolo[3,4-b][1,4,5]oxathiazepine-6-carboxamide] yielded a CC50 at 4 days of over 25 µM. Also, in series [2], the EC50 stood at 22 nM.

The molecule `Cn1cc2c(c1C(=O)Nc1ccc(F)c(C#N)c1)CCC(C(C)(C)O)NS2(=O)=O` (single isomer, unassigned) [Compound 116a, N-(3-cyano-4-fluoro-phenyl)-3-(1-hydroxy-1-methyl-ethyl)-7-methyl-1,1-dioxo-2,3,4,5-tetrahydropyrrolo[3,4-f]thiazepine-6-carboxamide] gave a cytotoxic concentration (CC50) at 4 days in series [1] of over 25 µM. Also, in series [2], the EC50 stood at 22 nM.

Consider `CCC1(C)COc2c(cn(C)c2C(=O)Nc2ccc(F)c(F)c2)S(=O)(=O)N1` (single isomer, unassigned) [Compound 134a, N-(3,4-difluorophenyl)-3-ethyl-3,7-dimethyl-1,1-dioxo-2,4-dihydropyrrolo[3,4-b][1,4,5]oxathiazepine-6-carboxamide], for which the CC50 at 4 days in series [1] was over 25 µM. Also, the concentration giving a half-maximal response (EC50) in series [2] (setting [3]) came to 8 nM.

With `CCC(O)[C@@H]1COc2c(cn(C)c2C(=O)Nc2ccc(F)c(F)c2)S(=O)(=O)N1` (single isomer, unassigned) [Compound 142a, N-(3,4-difluorophenyl)-3-(1-hydroxypropyl)-7-methyl-1,1-dioxo-3,4-dihydro-2H-pyrrolo[3,4-b][1,4,5]oxathiazepine-6-carboxamide], in series [1], the CC50 at 4 days is over 25 µM. Besides, the EC50 in series [2] (setting [3]) is 65 nM.

As for `CCC(O)[C@@H]1COc2c(cn(C)c2C(=O)Nc2ccc(F)c(C(F)F)c2)S(=O)(=O)N1` (single isomer, unassigned) [Compound 144a, N-[3-(difluoromethyl)-4-fluoro-phenyl]-3-(1-hydroxypropyl)-7-methyl-1,1-dioxo-3,4-dihydro-2H-pyrrolo[3,4-b][1,4,5]oxathiazepine-6-carboxamide], in series [1], the CC50 at 4 days was over 25 µM. The EC50 in series [2] was 19 nM.

`Cn1cc2c(c1C(=O)Nc1cc(F)c(F)c(F)c1)CCC(C(C)(C)O)NS2(=O)=O` (single isomer, unassigned) [Compound 149a, 3-(1-hydroxy-1-methyl-ethyl)-7-methyl-1,1-dioxo-N-(3,4,5-trifluorophenyl)-2,3,4,5-tetrahydropyrrolo[3,4-f]thiazepine-6-carboxamide] yielded a CC50 at 4 days in series [1] of over 25 µM. For the same molecule, the EC50 in series [2] was over 125 nM.
